Where “and” joins values, the source holds several entries; their conditions need not be identical. Equal entries are not always repeated. Inconclusive results are not listed.
System: CD8F1 mice, subcutaneous mammary adenocarcinoma, T/C%
Experiment: NCI In Vivo Anticancer Drug Screen. Data for tumor model Mammary Adenocarcinoma CD8F1 (subcutaneous) in CD8F1
Settings: higher = larger tumour
Procedure, shortened: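 Transplantable tumors were established in mice, animals were dosed with compound or vehicle, and survival or tumor size was then measured in both groups. The treated result was divided by the control result.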

[1] = endpoint: median tumor weight (est.), dose: 100.0 mg/kg/injection, schedule: Q07DX005 (ip), vehicle: saline with Tween-80
[2] = endpoint: median tumor weight (est.), dose: 12.5 mg/kg/injection, schedule: Q07DX005 (ip), vehicle: saline with Tween-80
[3] = endpoint: median tumor weight (est.), dose: 25.0 mg/kg/injection, schedule: Q07DX005 (ip), vehicle: saline with Tween-80
[4] = endpoint: median tumor weight (est.), dose: 50.0 mg/kg/injection, schedule: Q07DX005 (ip), vehicle: saline with Tween-80
[5] = endpoint: median tumor weight (est.), dose: 200.0 mg/kg/injection, schedule: Q07DX005 (ip), vehicle: saline with Tween-80

SMILES: COC(=O)c1cc2cc(C)c(C)c(C)c2c2ccc(C)cc12
- T/C [1]: 101 % of control

SMILES: CC1C(=O)c2cc3c(cc2CCN(C)Cc2c1ccc1c2OCO1)OCO3 (stereo unspecified)
- T/C (endpoint: median tumor weight change, dose: 12.5 mg/kg/injection, schedule: Q01DX001 (ip), vehicle: saline with Tween-80): 65 % of control
- T/C (endpoint: median tumor weight change, dose: 25.0 mg/kg/injection, schedule: Q01DX001 (ip), vehicle: saline with Tween-80): 64 % of control

SMILES: CCCCCCCCCCCCCCCCCCOCC(COP(=O)([O-])OCC[N+](C)(C)C)OC (stereo unspecified)
- T/C (endpoint: median tumor weight change, dose: 1.95 mg/kg/injection, schedule: Q01DX001 (ip), vehicle: saline): 97 % of control
- T/C (endpoint: median tumor weight change, dose: 3.9 mg/kg/injection, schedule: Q01DX001 (ip), vehicle: saline): 67 % of control
- T/C (endpoint: median tumor weight change, dose: 7.8 mg/kg/injection, schedule: Q01DX001 (ip), vehicle: saline): 95 % of control
- T/C (endpoint: median tumor weight change, dose: 15.62 mg/kg/injection, schedule: Q01DX001 (ip), vehicle: saline): 48 % of control
- T/C (endpoint: median tumor weight change, dose: 31.0 mg/kg/injection, schedule: Q01DX001 (ip), vehicle: suspension in saline): 79 % of control
- T/C (endpoint: median tumor weight change, dose: 31.25 mg/kg/injection, schedule: Q01DX001 (ip), vehicle: saline): 100 % of control
- T/C (endpoint: median tumor weight change, dose: 62.0 mg/kg/injection, schedule: Q01DX001 (ip), vehicle: suspension in saline): 75 % of control

SMILES: NCCCC(N)(C(=O)O)C(F)F (stereo unspecified)
- T/C (endpoint: median tumor weight change, dose: 125.0 mg/kg/injection, schedule: Q01DX001 (ip), vehicle: distilled water + alcohol): 29 % of control
- T/C (endpoint: median tumor weight change, dose: 250.0 mg/kg/injection, schedule: Q01DX001 (ip), vehicle: distilled water + alcohol): 51 % of control
- T/C (endpoint: median tumor weight change, dose: 500.0 mg/kg/injection, schedule: Q01DX001 (ip), vehicle: distilled water + alcohol): 64 % of control
- T/C (endpoint: median tumor weight change, dose: 1000.0 mg/kg/injection, schedule: Q01DX001 (ip), vehicle: distilled water + alcohol): 36 % of control
- T/C (endpoint: median tumor weight change, dose: 2000.0 mg/kg/injection, schedule: Q01DX001 (ip), vehicle: distilled water + alcohol): 72 % of control

SMILES: O=[N+]([O-])O.O=[N+]([O-])O.[NH-]C1CCCCC1[NH-].[Pt+2] (stereo unspecified)
- T/C (endpoint: median tumor weight (est.), dose: 0.5 mg/kg/injection, schedule: Q07DX005 (ip), vehicle: dextrose): 46 % of control and 52 % of control
- T/C (endpoint: median tumor weight (est.), dose: 2.0 mg/kg/injection, schedule: Q07DX005 (ip), vehicle: dextrose): 50 % of control
- T/C (endpoint: median tumor weight (est.), dose: 4.0 mg/kg/injection, schedule: Q07DX005 (ip), vehicle: dextrose): 29 % of control and 38 % of control
- T/C (endpoint: median tumor weight (est.), dose: 8.0 mg/kg/injection, schedule: Q07DX005 (ip), vehicle: dextrose): 12 % of control and 29 % of control

SMILES: CCOC(=O)C(C)(C)Oc1ccc(Cl)cc1
- T/C [2]: 61 % of control
- T/C [3]: 113 % of control
- T/C [4]: 84 % of control
- T/C [1]: 72 % of control
- T/C [5]: 77 % of control
- T/C (endpoint: median tumor weight (est.), dose: 400.0 mg/kg/injection, schedule: Q07DX005 (ip), vehicle: saline with Tween-80): 64 % of control

SMILES: CC(C)[NH-].CC(C)[NH-].O.O.[Cl][Pt+2][Cl]
- T/C (endpoint: median tumor weight (est.), dose: 6.25 mg/kg/injection, schedule: Q07DX005 (ip), vehicle: dextrose): 121 % of control
- T/C (endpoint: median tumor weight (est.), dose: 12.5 mg/kg/injection, schedule: Q07DX005 (ip), vehicle: dextrose): 121 % of control
- T/C (endpoint: median tumor weight (est.), dose: 25.0 mg/kg/injection, schedule: Q07DX005 (ip), vehicle: dextrose): 110 % of control
- T/C (endpoint: median tumor weight (est.), dose: 50.0 mg/kg/injection, schedule: Q07DX005 (ip), vehicle: dextrose): 8 % of control

SMILES: COC1=C(OC)C(=O)C(Sc2ccc3ccccc3c2)=CC1=O
- T/C [2]: 115 % of control
- T/C [3]: 84 % of control
- T/C [4]: 122 % of control
- T/C [5]: 92 % of control

SMILES: CC(=O)OC1(C)CC(C)C(=O)C(C(O)CC2CC(=O)NC(=O)C2)C1 (stereo unspecified)
- T/C (endpoint: median tumor weight (est.), dose: 94.0 micrograms/kg/injection, schedule: Q07DX005 (ip), vehicle: saline): 57 % of control
- T/C (endpoint: median tumor weight (est.), dose: 188.0 micrograms/kg/injection, schedule: Q07DX005 (ip), vehicle: saline): 34 % of control
- T/C (endpoint: median tumor weight (est.), dose: 375.0 micrograms/kg/injection, schedule: Q07DX005 (ip), vehicle: saline): 37 % of control
- T/C (endpoint: median tumor weight (est.), dose: 750.0 micrograms/kg/injection, schedule: Q07DX005 (ip), vehicle: saline): 32 % of control

SMILES: Cc1cc(=O)n2c3c(c4c(cc13)c(CN(C)C)cc(=O)n4C)OC2
- T/C (endpoint: median tumor weight change, dose: 62.0 mg/kg/injection, schedule: Q01DX001 (ip), vehicle: saline with Tween-80): 190 % of control

SMILES: CCN(CC)CCOCCO
- T/C (endpoint: median tumor weight change, dose: 62.5 mg/kg/injection, schedule: Q01DX001 (ip), vehicle: saline): 151 % of control
- T/C (endpoint: median tumor weight change, dose: 125.0 mg/kg/injection, schedule: Q01DX001 (ip), vehicle: saline): 172 % of control
- T/C (endpoint: median tumor weight change, dose: 250.0 mg/kg/injection, schedule: Q01DX001 (ip), vehicle: saline): 65 % of control

From PubChem BioAssay AID220 (DTP/NCI, 2004)
